Measurements as given in patent US20120220567A1, “BENZO-FUSED OXAZEPINE COMPOUNDS AS STEAROYL-COENZYME A DELTA-9 DESATURASE INHIBITORS” (priority 2009, published 2012).
pIC50: −log10 of the molar value.

target: T1, SCD-1 (Homo sapiens, UniProt O00767); assay: Stearoyl-CoA desaturase assay (HepG2 cell P2 pellet); assay type: biochemical; conditions: Table 1, compounds of formula (Ia); protein from HepG2 cell P2 pellet, 20 μM stearoyl-CoA, 15 min at 25° C.; read-out: Ave IC50
T1 construct: 50 μg of protein from a HepG2 cell P2 pellet; endogenous in cells; host or cells: HepG2 cells (P2 pellet)
T1 sequence (O00767 1-359): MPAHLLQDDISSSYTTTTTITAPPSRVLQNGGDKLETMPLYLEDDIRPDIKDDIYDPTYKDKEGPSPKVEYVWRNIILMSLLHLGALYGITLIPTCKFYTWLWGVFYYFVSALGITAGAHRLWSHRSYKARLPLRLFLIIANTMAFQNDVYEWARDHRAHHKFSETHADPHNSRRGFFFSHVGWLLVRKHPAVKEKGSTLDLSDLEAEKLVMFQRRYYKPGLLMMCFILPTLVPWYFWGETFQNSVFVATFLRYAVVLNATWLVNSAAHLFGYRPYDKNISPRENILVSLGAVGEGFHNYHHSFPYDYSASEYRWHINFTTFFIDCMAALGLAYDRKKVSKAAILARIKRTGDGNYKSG

`CC(=O)NCC(=O)N1CCC2(CC1)CCN(Cc1cccc(C(F)(F)F)c1)c1ccccc1O2` [Compound 1, N-(2-oxo-2-(5-(3-(trifluoromethyl)benzyl)-4,5-dihydro-3H-spiro[benzo[b][1,4]oxazepine-2,4′-piperidine]-1′-yl)ethyl)acetamide] was tested, and the pIC50 was < 5.00.

same assay, conditions: Table 2, compounds of formula (Ib); protein from HepG2 cell P2 pellet, 20 μM stearoyl-CoA, 15 min at 25° C.; read-out: Ave IC50

`CC(C)(C)c1ccc(CN2CCC3(CCN(c4ncc(C(=O)NCCCCCC(=O)O)s4)CC3)Oc3c(F)cccc32)cc1` [Compound 124] and `CC(C)CCNC(=O)c1cnc(N2CCC3(CC2)CCN(Cc2ccc(C(C)(C)C)cc2)c2cccc(F)c2O3)s1` [Compound 109] fall in the same range of pIC50: 5.00 to 6.30 for the first, 5.00 to 6.30 for the second.

Compared with `CC(C)(C)OC(=O)CCNC(=O)c1cnc(N2CCC3(CC2)CCN(Cc2ccc(C(C)(C)C)cc2)c2cccc(F)c2O3)s1` [Compound 116], `CC(C)(C)c1ccc(CN2CCC3(CCN(c4ncc(C(=O)NCCc5ccsc5)s4)CC3)Oc3c(F)cccc32)cc1` [Compound 92] is lower in pIC50: 7.31 to 9.30 for the first, 5.00 to 6.30 for the second. The first is the more potent here.

For `CC(C)(C)c1ccc(CN2CCC3(CCN(c4ncc(C(=O)NCCCn5ccnn5)s4)CC3)Oc3c(F)cccc32)cc1` [Compound 86], the pIC50 was 5.00 to 6.30.
